Measurements: article PMC9516332 (Frontiers in Oncology, 2022)
Where two headings read alike, the source gives them in different places.

Tested on: 134 cancer cell lines
Assay: Cell viability assay (ATPlite, 72 hours), IC50 on cancer cell line panel

O=C(c1ccc(F)c(F)c1Nc1ccc(I)cc1F)N1CC(O)([C@@H]2CCCCN2)C1 [cobimetinib]
IC50 (HEC-6, read-out: IC50 in cell proliferation assay, HEC-6 cell line (EGFR p.A289V)): 164 nM
IC50 (Homo sapiens, 769-P, read-out: IC50 in cell proliferation assay, cell line 769-P): 423 nM
IC50 (Homo sapiens, 786-0, read-out: IC50 in cell proliferation assay, cell line 786-O): 205 nM
IC50 (Homo sapiens, A 172, read-out: IC50 in cell proliferation assay, cell line A-172): 218 nM
IC50 (Homo sapiens, A204, read-out: IC50 in cell proliferation assay, cell line A-204): 900 nM
IC50 (Homo sapiens, A498, read-out: IC50 in cell proliferation assay, cell line A-498): 3910 nM
IC50 (Homo sapiens, A549, read-out: IC50 in cell proliferation assay, cell line A-549): 255 nM
IC50 (Homo sapiens, A704, read-out: IC50 in cell proliferation assay, cell line A-704): > 10000 nM
IC50 (Homo sapiens, A-375, read-out: IC50 in cell proliferation assay, cell line A-375 (BRAF p.V600E)): 13 nM
IC50 (Homo sapiens, A-427, read-out: IC50 in cell proliferation assay, cell line A-427): 72 nM
IC50 (Homo sapiens, ACHN, read-out: IC50 in cell proliferation assay, cell line ACHN): 104 nM
IC50 (Homo sapiens, AN3-CA, read-out: IC50 in cell proliferation assay, cell line AN3-CA (FGFR2 p.N549K)): 558 nM
IC50 (Homo sapiens, ASPC1, read-out: IC50 in cell proliferation assay, cell line AsPC-1): 61 nM
IC50 (Homo sapiens, AU565, read-out: IC50 in cell proliferation assay, cell line AU565 (ERBB2 amplification)): > 10000 nM
IC50 (Homo sapiens, BT-20, read-out: IC50 in cell proliferation assay, cell line BT-20): > 10000 nM
IC50 (Homo sapiens, BT-474, read-out: IC50 in cell proliferation assay, cell line BT-474 (ERBB2 amplification)): 5990 nM
IC50 (Homo sapiens, BT-549, read-out: IC50 in cell proliferation assay, cell line BT-549): 5720 nM
IC50 (Homo sapiens, BXPC-3, read-out: IC50 in cell proliferation assay, cell line BxPC-3): 10 nM
IC50 (Homo sapiens, C-33-A, read-out: IC50 in cell proliferation assay, cell line C-33 A): 43 nM
IC50 (Homo sapiens, CAL-27, read-out: IC50 in cell proliferation assay, cell line CAL-27): 63 nM
IC50 (Homo sapiens, CCF-STTG1, read-out: IC50 in cell proliferation assay, cell line CCF-STTG1): > 10000 nM
IC50 (Homo sapiens, CCRF-CEM, read-out: IC50 in cell proliferation assay, cell line CCRF-CEM): 8480 nM
IC50 (Homo sapiens, COLO 205, read-out: IC50 in cell proliferation assay, cell line COLO 205 (BRAF p.V600E)): 10 nM
IC50 (Homo sapiens, COLO-829, read-out: IC50 in cell proliferation assay, cell line COLO 829 (BRAF p.V600E)): 28 nM
IC50 (Homo sapiens, DLD-1, read-out: IC50 in cell proliferation assay, cell line DLD-1): 724 nM
IC50 (Homo sapiens, DU-4475, read-out: IC50 in cell proliferation assay, cell line DU4475 (BRAF p.V600E)): 17 nM
IC50 (Homo sapiens, Daoy, read-out: IC50 in cell proliferation assay, cell line Daoy): > 10000 nM
IC50 (Homo sapiens, DoTc2-4510, read-out: IC50 in cell proliferation assay, cell line DoTc2 4510): 42 nM
IC50 (Homo sapiens, EOL1, read-out: IC50 in cell proliferation assay, cell line EoL-1 (FIP1L1-PDGFRA)): 87 nM
IC50 (Homo sapiens, FaDu, read-out: IC50 in cell proliferation assay, cell line FaDu): 146 nM
IC50 (Homo sapiens, G-361, read-out: IC50 in cell proliferation assay, cell line G-361 (BRAF p.V600E)): 11 nM
IC50 (Homo sapiens, HCC827, read-out: IC50 in cell proliferation assay, cell line HCC827 (EGFR exon19del)): 321 nM
IC50 (Homo sapiens, HCC4006, read-out: IC50 in cell proliferation assay, cell line HCC4006 (EGFR exon19del)): 1280 nM
IC50 (Homo sapiens, HCT-15, read-out: IC50 in cell proliferation assay, cell line HCT 15): 3580 nM
IC50 (Homo sapiens, HCT-116, read-out: IC50 in cell proliferation assay, cell line HCT 116): 106 nM
IC50 (Homo sapiens, HEC-1, read-out: IC50 in cell proliferation assay, HEC-1 cell line): 368 nM
IC50 (Homo sapiens, HEC-1B, read-out: IC50 in cell proliferation assay, HEC-1-B cell line (EGFR p.A864V)): 13 nM
IC50 (Homo sapiens, HL-60, read-out: IC50 in cell proliferation assay, HL-60 cell line): 19 nM
IC50 (Homo sapiens, HT, read-out: IC50 in cell proliferation assay, HT cell line): > 10000 nM
IC50 (Homo sapiens, HT-1080, read-out: IC50 in cell proliferation assay, HT-1080 cell line): 68 nM
IC50 (Homo sapiens, Hs746T, read-out: IC50 in cell proliferation assay, Hs 746.T cell line (MET exon14skip + amplification)): 530 nM
IC50 (Homo sapiens, Hs-578T, read-out: IC50 in cell proliferation assay, Hs 578T cell line): 2220 nM
IC50 (Homo sapiens, HuTu80, read-out: IC50 in cell proliferation assay, HuTu 80 cell line): 319 nM
IC50 (Homo sapiens, J82, read-out: IC50 in cell proliferation assay, J82 cell line): 85 nM
IC50 (Homo sapiens, Jurkat E6.1, read-out: IC50 in cell proliferation assay, Jurkat E6.1 cell line): > 10000 nM
IC50 (Homo sapiens, K562, read-out: IC50 in cell proliferation assay, K-562 cell line): 73 nM
IC50 (Homo sapiens, KATO III, read-out: IC50 in cell proliferation assay, KATO III cell line (FGFR2 amplification)): 291 nM
IC50 (Homo sapiens, KG-1, read-out: IC50 in cell proliferation assay, KG-1 cell line (FGFR1OP2-FGFR1)): 26 nM
IC50 (Homo sapiens, KLE, read-out: IC50 in cell proliferation assay, KLE cell line): > 10000 nM
IC50 (Homo sapiens, KMS-11, read-out: IC50 in cell proliferation assay, KMS-11 cell line (FGFR3 p.Y373C)): 4120 nM
IC50 (Homo sapiens, KU812, read-out: IC50 in cell proliferation assay, Ku812 cell line): 64 nM
IC50 (Homo sapiens, Kasumi 1, read-out: IC50 in cell proliferation assay, Kasumi-1 cell line (KIT p.N822K)): 62 nM
IC50 (Homo sapiens, LC-2-ad, read-out: IC50 in cell proliferation assay, LC-2/ad cell line (CCDC6-RET)): 1190 nM
IC50 (Homo sapiens, LNCaP-Clone-FGC, read-out: IC50 in cell proliferation assay, LNCaP clone FGC cell line): 9640 nM
IC50 (Homo sapiens, LS174T, read-out: IC50 in cell proliferation assay, LS174T cell line): 25 nM
IC50 (Homo sapiens, LS-411N, read-out: IC50 in cell proliferation assay, LS411N cell line (BRAF p.V600E)): 21 nM
IC50 (Homo sapiens, LoVo, read-out: IC50 in cell proliferation assay, LoVo cell line): 118 nM
IC50 (Homo sapiens, MCF7, read-out: IC50 in cell proliferation assay, MCF-7 cell line): 8550 nM
IC50 (Homo sapiens, MDA-MB-231, read-out: IC50 in cell proliferation assay, MDA-MB-231 cell line): 192 nM
IC50 (Homo sapiens, MDA-MB-453, read-out: IC50 in cell proliferation assay, MDA-MB-453 cell line): 501 nM
IC50 (Homo sapiens, MDA-MB-468, read-out: IC50 in cell proliferation assay, MDA-MB-468 cell line): 248 nM
IC50 (Homo sapiens, MG-63, read-out: IC50 in cell proliferation assay, MG-63 cell line): 421 nM
IC50 (Homo sapiens, MIA PaCa-2, read-out: IC50 in cell proliferation assay, MIA PaCa-2 cell line): 68 nM
IC50 (Homo sapiens, MKN-45, read-out: IC50 in cell proliferation assay, MKN45 cell line (MET amplification)): 294 nM
IC50 (Homo sapiens, MOLM-13, read-out: IC50 in cell proliferation assay, MOLM-13 cell line (FLT3 ITD)): 172 nM
IC50 (Homo sapiens, MOLT-4, read-out: IC50 in cell proliferation assay, MOLT-4 cell line): > 10000 nM
